Legend:
[1] = target: TRPM8 (Rattus norvegicus, UniProt Q8R455); assay: Confirmation test of inhibitory effects on icilin-induced wet-dog shakes; type: in vivo, female SD rats; parameters: test compounds were orally administered to female SD rats; from tissue; host or cells: whole animal (female SD rats), endogenous channel; settings: icilin 1 mg/kg i.p. after 1 hour, shakes counted for 5 minutes
Method: Test compounds were dissolved in dimethylacetamide (wako), and 0.5% methylcellulose solution (wako) was added to make the solution or suspension containing 5% of dimethylacetamide. At a dose of 3 or 10 mg/kg/5 mL of test compounds were orally administered to female SD rats. After 1 hour, wet-dog shakes were induced by the intrapenitoneal injection of icilin (1 mg/kg) which was dissolved in polyethylene glycol 400 (wako). From 5 minutes after the administration of icilin, wet-dog shakes were counted for 5 minutes. For control example, vehicle (a mixture of dimethylacetamide (wako): 0.5% methylcellulose (wako)=5:95) was administrated similarly, and the number of wet-dog shakes was counted in the same manner. A percent inhibition of wet-dog shakes by test compound was calculated from the following formula: [1-(test compound wet-dog shake count/vehicle wet-dog shake count)]×100.

[2] = tested on: overactive bladder induced by acetic acid; assay: Confirmation test of elongation action of micturition interval of overactive bladder induced by acetic acid; type: in vivo, female SD rats; settings: Rattus norvegicus, iv, interval before administration = 100%
Method: Urethane (sigma) was dissolved into pure water by 25% w/v, and female SD rats were anesthetized with 1.25 g/kg urethane by subcutaneous administration. Cannulae were placed in femoral vein and bladder, and the bladder cannula was connected to both a syringe pump and a pressure transducer. Detrusor overactivity was induced by intravesical infusion of 0.25% acetic acid in saline at a rate of 3.6 mL/h, and intravesical pressure was monitored via pressure transducer concurrently. Test compounds were dissolved into a mixture of dimethylacetamide and saline (20:80), and were administered via the femoral vein. When an average of the three micturition interval before administration was taken as 100%, an average of the three micturition interval after administration was calculated as Elongation of micturition interval (%) Dose and results are shown in tables 46 and 47.

[3] = 1 mg/kg/ml via the femoral vein
[4] = 1 mg/kg/2 ml via the femoral vein

Chain of TRPM8 (Q8R455 whole entry): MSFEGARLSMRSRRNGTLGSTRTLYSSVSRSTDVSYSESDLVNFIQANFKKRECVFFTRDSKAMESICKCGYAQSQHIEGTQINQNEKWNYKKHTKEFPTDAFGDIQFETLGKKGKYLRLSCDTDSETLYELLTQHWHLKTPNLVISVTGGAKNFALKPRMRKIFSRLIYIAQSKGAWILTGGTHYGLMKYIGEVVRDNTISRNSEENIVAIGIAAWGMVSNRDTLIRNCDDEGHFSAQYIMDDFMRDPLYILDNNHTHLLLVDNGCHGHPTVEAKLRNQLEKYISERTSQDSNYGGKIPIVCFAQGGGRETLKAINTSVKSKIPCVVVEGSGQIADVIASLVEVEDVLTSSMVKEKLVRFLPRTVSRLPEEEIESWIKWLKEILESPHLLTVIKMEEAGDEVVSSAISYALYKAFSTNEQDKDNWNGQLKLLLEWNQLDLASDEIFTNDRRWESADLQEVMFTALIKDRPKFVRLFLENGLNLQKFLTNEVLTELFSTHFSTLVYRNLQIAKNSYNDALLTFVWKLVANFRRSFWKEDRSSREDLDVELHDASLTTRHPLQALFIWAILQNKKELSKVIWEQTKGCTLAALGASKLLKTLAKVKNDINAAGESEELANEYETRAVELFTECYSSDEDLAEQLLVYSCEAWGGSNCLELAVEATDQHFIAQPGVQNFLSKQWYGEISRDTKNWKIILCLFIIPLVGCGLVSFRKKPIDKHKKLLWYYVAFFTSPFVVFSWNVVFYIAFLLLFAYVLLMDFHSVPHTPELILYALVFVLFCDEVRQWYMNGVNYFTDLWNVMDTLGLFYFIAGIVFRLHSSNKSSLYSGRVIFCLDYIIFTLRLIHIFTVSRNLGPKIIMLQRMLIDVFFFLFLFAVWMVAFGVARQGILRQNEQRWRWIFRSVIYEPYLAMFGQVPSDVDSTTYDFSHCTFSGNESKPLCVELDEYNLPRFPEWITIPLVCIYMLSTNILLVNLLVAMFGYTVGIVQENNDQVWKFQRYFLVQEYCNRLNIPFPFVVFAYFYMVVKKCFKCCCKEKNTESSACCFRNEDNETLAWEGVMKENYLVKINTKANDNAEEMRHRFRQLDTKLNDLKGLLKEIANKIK

% inhibition of Wet-Dog Shake ([1]; dose 3 mg/kg orally) | % inhibition of Wet-Dog Shake ([1]; dose 10 mg/kg orally) | Structure (SMILES) | further results
100% |  | Cc1ncccc1C(=O)N([C@@H]1CCc2c(F)cc(F)cc21)[C@@H](C(N)=O)c1ccccc1 [Example 2-131LP, N-[(R)-carbamoylphenylmethyl]-N-[(R)-4,6-difluoroindan-1-yl]-2-methylnicotinamide] | response vs control in vivo at 1 mg/kg [2, 3]: 162%
100% |  | COc1ncccc1C(=O)N([C@@H]1CCc2c(F)cc(Cl)cc21)[C@@H](C(N)=O)c1ccccc1 [Example 11, N-[(R)-carbamoylphenylmethyl]-N-[(R)-6-chloro-4-fluoroindan-1-yl]-2-methoxynicotinamide] | response vs control in vivo at 1 mg/kg [2, 3]: 162%
37% |  | NC(=O)[C@@H](c1cnccn1)N(C(=O)c1ccccc1O)[C@@H]1CCc2c(F)cc(Cl)cc21 [Example 4-8, N-[(R)-carbamoylpyrazin-2-ylmethyl]-N-[(R)-6-chloro-4-fluoroindan-1-yl]-2-hydroxybenzamide] | 
 | 92% | Cc1cccc(C(=O)N([C@@H]2CCc3c(F)cc(Cl)cc32)[C@@H](C(N)=O)c2cccnc2)c1O [Example 19-41LP, N-[(R)-Carbamoylpyridin-3-ylmethyl]-N-[(R)-6-chloro-4-fluoroindan-1-yl]-2-hydroxy-3-methylbenzamide] | 
44% |  | Cc1cccnc1C(=O)N([C@@H]1CCc2c(F)cc(Cl)cc21)[C@@H](C(N)=O)c1ccccc1 [Example 2-152LP, N-[(R)-carbamoylphenylmethyl]-N-[(R)-6-chloro-4-fluoroindan-1-yl]-3-methylpyridine-2-carboxamide] | 
 | 86% | NC(=O)[C@@H](c1ccccc1)N(C(=O)c1ccccc1O)[C@@H]1COc2ccc(Cl)cc21 [Example 4-2, N-[(R)-carbamoylphenylmethyl]-N-[(S)-5-chloro-2,3-dihydrobenzofuran-3-yl]-2-hydroxybenzamide] | 
 | 66% | NC(=O)[C@@H](c1cccnc1)N(C(=O)c1ccc(Cl)cc1O)[C@@H]1CCc2c(F)cc(Cl)cc21 [Example 19-17LP, N-[(R)-carbamoylpyridin-3-ylmethyl]-4-chloro-N-[(R)-6-chloro-4-fluoroindan-1-yl]-2-hydroxybenzamide] | 
 | 72% | NC(=O)[C@@H](c1cccnc1)N(C(=O)c1c(O)cccc1F)[C@@H]1CCc2c(F)cc(Cl)cc21 [Example 19-15LP, N-[(R)-carbamoylpyridin-3-ylmethyl]-N-[(R)-6-chloro-4-fluoroindan-1-yl]-2-fluoro-6-hydroxybenzamide] | 
49% |  | Cc1cnoc1C(=O)N([C@@H]1CCc2c(F)cc(Cl)cc21)[C@@H](C(N)=O)c1ccccc1 [Example 2-150LP, N-[(R)-carbamoylphenylmethyl]-N-[(R)-6-chloro-4-fluoroindan-1-yl]-4-methylisoxazole-5-carboxamide] | 
55% |  | Cn1nccc1C(=O)N([C@@H]1CCc2c(F)cc(Cl)cc21)[C@@H](C(N)=O)c1ccccc1 [Example 2-133LP, N-[(R)-carbamoylphenylmethyl]-N-[(R)-6-chloro-4-fluoroindan-1-yl]-2-methyl-2H-pyrazole-3-carboxamide] | 
68% |  | CNc1ncccc1C(=O)N([C@@H]1CCc2c(F)cc(Cl)cc21)[C@@H](C(N)=O)c1ccccc1 [Example 2-107LP, N-[(R)-carbamoylphenylmethyl]-N-[(R)-6-chloro-4-fluoroindan-1-yl]-2-(methylamino)nicotinamide] | 
 | 86% | Cc1ncccc1C(=O)N([C@@H]1CCc2c(F)cc(Cl)cc21)[C@@H](C(N)=O)c1cccc(N(C)C)c1 [Example 18-13LP, N-[(R)-carbamoyl-(3-dimethylaminophenyl)methyl]-N-[(R)-6-chloro-4-fluoroindan-1-yl]-2-methylnicotinamide] | 
 | 73% | N#Cc1ccc2c(c1)[C@H](N(C(=O)c1ccccc1O)[C@@H](C(N)=O)c1ccccc1)CC2 [Example 3-2, N-[(R)-carbamoylphenylmethyl]-N-[(R)-6-cyanoindan-1-yl]-2-hydroxybenzamide] | 
47% |  | Cc1ccncc1C(=O)N([C@@H]1CCc2c(F)cc(Cl)cc21)[C@@H](C(N)=O)c1ccccc1 [Example 2-100LP, N-[(R)-carbamoylphenylmethyl]-N-[(R)-6-chloro-4-fluoroindan-1-yl]-4-methylnicotinamide] | 
53% |  | Cc1ncccc1C(=O)N([C@@H]1CCc2ccc(Cl)cc21)[C@@H](C(N)=O)c1ccccc1 [Example 2-137LP, N-[(R)-carbamoylphenylmethyl]-N-[(R)-6-chloroindan-1-yl]-2-methylnicotinamide] | 

The remaining lines, values behind:

Structure (SMILES) | % inhibition of Wet-Dog Shake ([1]; dose 3 mg/kg orally) | % inhibition of Wet-Dog Shake ([1]; dose 10 mg/kg orally) | further results
NC(=O)[C@@H](c1cccnc1)N(C(=O)c1ccccc1)[C@@H]1CCc2c(F)cc(Cl)cc21 [Example 2-66LP, N-[(R)-carbamoylpyridin-3-ylmethyl]-N-[(R)-6-chloro-4-fluoroindan-1-yl]benzamide] |  | 100% | response vs control in vivo at 1 mg/kg [2, 3]: 175%
COc1ccc2c(c1)[C@H](N(C(=O)c1ccccc1)[C@@H](C(N)=O)c1ccccc1)CC2 [Example 2-4LP, N-[(R)-Carbamoylphenylmethyl]-N-[(R)-6-methoxyindan-1-yl]benzamide] |  | 79% | response vs control in vivo at 1 mg/kg [2, 4]: 156%
NC(=O)[C@@H](c1ccccc1)N(C(=O)c1cncc(F)c1)[C@@H]1CCc2c(F)cc(Cl)cc21 [Example 2-86LP, N-[(R)-carbamoylphenylmethyl]-N-[(R)-6-chloro-4-fluoroindan-1-yl]-5-fluoronicotinamide] |  | 73% | response vs control in vivo at 1 mg/kg [2, 4]: 145%
NC(=O)[C@@H](c1ccccc1)N(C(=O)c1cccnc1)[C@@H]1CCc2ccc(Cl)cc21 [Example 2-31LP, N-[(R)-carbamoylphenylmethyl]-N-[(R)-6-chloroindan-1-yl]nicotinamide] |  | 87% | response vs control in vivo at 1 mg/kg [2, 3]: 176%
NC(=O)[C@@H](c1ccccc1)N(C(=O)c1ccccc1)[C@@H]1CCc2ccc(C3CC3)cc21 [Example 2-5LP, N-[(R)-carbamoylphenylmethyl]-N-[(R)-6-cyclopropylindan-1-yl]benzamide] |  | 89% | response vs control in vivo at 1 mg/kg [2, 4]: 177%
COc1ncccc1C(=O)N([C@@H]1CCc2ccc(Cl)cc21)[C@@H](C(N)=O)c1ccccc1 [Example 2-46LP, N-[(R)-carbamoylphenylmethyl]-N-[(R)-6-chloroindan-1-yl]-2-methoxynicotinamide] | 79% |  | response vs control in vivo at 1 mg/kg [2, 3]: 186%
NC(=O)[C@@H](c1cccnc1)N(C(=O)c1ccccc1Cl)[C@@H]1CCc2c(F)cc(Cl)cc21 [Example 2-97LP, N-[(R)-carbamoylpyridin-3-ylmethyl]-2-chloro-N-[(R)-6-chloro-4-fluoroindan-1-yl]benzamide] | 35% |  | 
NC(=O)[C@@H](c1ccccc1)N(C(=O)c1cccnc1)[C@@H]1CCc2ccc(OC(F)F)cc21 [Example 2-26LP, N-[(R)-carbamoylphenylmethyl]-N-[(R)-6-difluoromethoxyindan-1-yl]nicotinamide] |  | 83% | 
NC(=O)[C@@H](c1ccccc1)N(C(=O)c1cccnc1N)[C@@H]1CCc2ccc(Cl)cc21 [Example 2-33LP, 2-amino-N-[(R)-carbamoylphenylmethyl]-N-[(R)-6-chloroindan-1-yl]nicotinamide] |  | 98% | 
COc1ncccc1C(=O)N([C@@H]1CCc2c(F)cc(F)cc21)[C@@H](C(N)=O)c1ccccc1 [Example 2-36LP, N-[(R)-carbamoylphenylmethyl]-N-[(R)-4,6-difluoroindan-1-yl]-2-methoxynicotinamide] | 74% |  | 
NC(=O)[C@@H](c1ccccc1)N(C(=O)c1cccnc1N)[C@@H]1CCc2ccc(OC(F)F)cc21 [Example 2-27LP, 2-amino-N-[(R)-carbamoylphenylmethyl]-N-[(R)-6-difluoromethoxyindan-1-yl]nicotinamide] |  | 95% | 
COc1ccc2c(c1)[C@H](N(C(=O)c1cccnc1)[C@@H](C(N)=O)c1ccccc1)CC2 [Example 1-6, N-[(R)-Carbamoylphenylmethyl]-N-[(R)-6-methoxyindan-1-yl]nicotinamide] |  | 64% | 
NC(=O)[C@@H](c1cccnc1)N(C(=O)c1ccccc1)[C@@H]1CCc2c(F)cc(F)cc21 [Example 2-76LP, N-[(R)-carbamoylpyridin-3-ylmethyl]-N-[(R)-4,6-difluoroindan-1-yl]benzamide] |  | 95% | 
NC(=O)[C@@H](c1cccnc1)N(C(=O)c1ccccc1O)[C@@H]1CCc2c(F)cc(Cl)cc21 [Example 19-1LP, N-[(R)-carbamoylpyridin-3-ylmethyl]-N-[(R)-6-chloro-4-fluoroindan-1-yl]-2-hydroxybenzamide] |  |  | response vs control in vivo at 1 mg/kg [2, 3]: 178%

— US9458092B2, “α-Substituted glycinamide derivative” (KISSEI PHARMACEUTICAL CO., LTD., priority 2013, dated 2016)
